Assay [1] has as its target T1, bradykinin 1 receptor (B1R) of the rat (Rattus norvegicus, UniProt P97583).
T1 construct: expressed in transfected cells; host or cells: CHO K1 cells
T1 sequence (P97583 1-337): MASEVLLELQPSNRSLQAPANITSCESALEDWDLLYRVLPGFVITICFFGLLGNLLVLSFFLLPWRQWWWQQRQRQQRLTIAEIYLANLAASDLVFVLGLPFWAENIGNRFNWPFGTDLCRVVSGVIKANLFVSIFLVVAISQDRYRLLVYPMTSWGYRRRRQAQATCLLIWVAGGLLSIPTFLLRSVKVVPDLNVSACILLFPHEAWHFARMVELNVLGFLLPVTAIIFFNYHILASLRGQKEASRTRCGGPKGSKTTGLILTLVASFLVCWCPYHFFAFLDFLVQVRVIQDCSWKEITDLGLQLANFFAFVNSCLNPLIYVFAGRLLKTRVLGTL
Description: Functional investigation on the rat bradykinin 1 receptor (B1R), Ca2+ FLIPR assay in CHO K1 rB1R cells. In kind it is cell-based. An excerpt: Functional Investigation on the Human Bradykinin 1 Receptor (B1R)
The agonistic or antagonistic action of substances can be determined on the bradykinin 1 receptor (B1R) of the human species and rats with the following assay. In accordance with this assay, the Ca^2+ inflow through the channel is quantified with the aid of a Ca^2=-sensitive dyestuff (type Fluo-4, Molecular Probes Europe BV, Leiden, Holland) in a fluorescent imaging plate reader (FLIPR, Molecular Devices, Sunnyvale, USA).
Chinese hamster ovary cells (CHO K1 cells) transfected stably with the human B1R gene (hB1R cells) or the B1R gene of the rat (rB1R cells) are used. For functional studies, these cells are plated out on black 96-well plates with a clear base (BD Biosciences, Heidelberg, Germany or Greiner, Frickenhausen, Germany) in a density of 20,000-35,000 cells/well. The cells are left overnight at 37° C. and 5% CO2 in culture medium (hB1R cells: Nutrient Mixture Ham's F12, Gibco Invitrogen GmbH, Karlsruhe, Germany or DMEM, Sigma-Aldrich, Taufkirchen, Germany; rB1R cells: D-MEM/F12, Gibco Invitrogen GmbH, Karlsruhe, Germany) with 10 vol. % of FBS (foetal bovine serum, Gibco Invitrogen GmbH, Karlsruhe, Germany or PAN Biotech GmbH, Aidenbach, Germany).
On the following day, the cells are loaded for 60 min at 37° C. with 2.13 μM Fluo-4 (Molecular Probes Europe BV, Leiden, The Netherlands) in HBSS buffer (Hank's buffered saline solution, Gibco Invitrogen GmbH, Karlsruhe, Germany) with 2.5 mM probenecid (Sigma-Aldrich, Taufkirchen, Germany) and 10 mM HEPES (Sigma-Aldrich, Taufkirchen, Germany). The plates are then washed 2× with HBSS buffer, and HBSS buffer which additionally contains 0.1% of BSA (bovine serum albumin; Sigma-Aldrich, Taufkirchen, Germany), 5.6 mM glucose and 0.05% of gelatine (Merck KGaA, Darmstadt, Germany) is added. After a further incubation of 20 minutes at room temperature, the plates are inserted into the FLIPR for the Ca^2+ measurement.
Alternatively, the plates are washed with buffer A (15 mM HEPES, 80 mM NaCl, 5 mM KCl, 1.2 mM CaCl2, 0.7 mM MgSO4, 2 g/l glucose, 2.5 mM probenecid), buffer A is added and the plates are loaded with 2.5 μM Fluo-4 and 0.025% of Pluronic F127 (Sigma-Aldrich, Taufkirchen, Germany). Thereafter, the cells are washed 2× with buffer A and incubated for 30 minutes with buffer A, which additionally contains 0.05% of BSA and 0.05% of gelatine, at room temperature and thereafter inserted into the FLIPR for the Ca^2+ measurement.
The Ca^2+-dependent fluorescence is measured before and after addition of substances (λex=488 nm, λem=540 nm). Quantification is by measurement of the highest fluorescence intensity (FC, fluorescence counts) over time.
The FLIPR protocol consists of 2 additions of substance. Test substances (10 μM) are first pipetted on to the cells and the Ca^2+ inflow is compared with the control (hB1R: Lys-Des-Arg^9-bradykinin >=50 nM; rB1R: Des-Arg^9-bradykinin 10 μM). This gives the information in % activation based on the Ca^2+ signal after addition of Lys-Des-Arg^9-bradykinin (>=50 nM) or Des-Arg^9-bradykinin (10 μM).
After incubation for 10-20 minutes, Lys-Des-Arg^9-bradykinin (hB1R) or Des-Arg^9-bradykinin (rB1R) is applied in the concentration of the EC80 and the inflow of Ca^2+ is likewise determined.
Antagonists lead to a suppression of the Ca^2+ inflow. % inhibition compared with the maximum achievable inhibition is calculated.
To determine the IC50 value, the substances are added in various concentrations. Duplicate or triplicate determinations (n=2 or n=3) are carried out, and these are repeated in at least one further independent experiment (N>=2).
Preferably, the compounds have a B1R antagonistic action on the human receptor and/or on the rat receptor. The following data are given by way of example in the following table: (In this, “B1R Ant. h” represents “B1R antagonism human” and “B1R Ant. r” represents “B1R antagonism rat”)

In assay [2] the target is T2, human bradykinin 1 receptor (B1R) (Homo sapiens, UniProt P46663).
T2 construct: expressed in transfected cells; host or cells: CHO K1 cells
T2 sequence (P46663 1-353): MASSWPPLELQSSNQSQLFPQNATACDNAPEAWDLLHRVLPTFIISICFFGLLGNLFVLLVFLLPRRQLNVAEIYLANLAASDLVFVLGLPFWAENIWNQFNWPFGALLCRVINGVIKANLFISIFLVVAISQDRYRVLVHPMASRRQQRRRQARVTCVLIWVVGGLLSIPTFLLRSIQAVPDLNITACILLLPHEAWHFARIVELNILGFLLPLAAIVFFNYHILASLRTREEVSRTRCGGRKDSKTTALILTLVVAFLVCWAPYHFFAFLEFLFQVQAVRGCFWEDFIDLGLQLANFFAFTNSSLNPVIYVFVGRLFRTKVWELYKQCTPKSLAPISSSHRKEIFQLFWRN
The experiment in a line: Functional investigation on the human bradykinin 1 receptor (B1R), Ca2+ FLIPR assay in CHO K1 hB1R cells. In kind it is cell-based. The essentials:
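Cells were dye-loaded with Fluo-4 plus probenecid, then test substances added and Ca2+ influx compared with agonist control for % activation. After 10-20 min, EC80 agonist (Lys-Des-Arg9-bradykinin human; Des-Arg9-bradykinin rat) was applied; suppression gave % inhibition and IC50 values.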

The mark [3] stands for this setting: CHO-K1, B1R antagonism rat, test substance 10 μM, Ca2+ FLIPR, CHO K1 rB1R cells, read-out: B1R Ant. r [10 μM] % Inhibition.
The mark [4] stands for this setting: CHO-K1, B1R antagonism human, test substance 10 μM, Ca2+ FLIPR, CHO K1 hB1R cells, read-out: B1R Ant. h [10 μM] % Inhibition.

Where two headings read alike, the source gives them in different places.

By inhibition is commonly meant the relative decrease from the control value, in per cent.

As to `Cc1cc(C)c(-c2noc(C(=O)NCC(=O)NC3CCC(C(c4ccccc4)N(C)C)CC3)n2)c(C)c1` (centres unmarked) [Example 772, 3-(2,4,6-trimethyl-phenyl)-[1,2,4]oxadiazole-5-carboxylic acid {[4-(dimethylamino-phenyl-methyl)-cyclohexylcarbamoyl]-methyl}-amide], the inhibition at 10 µM in assay [1] (setting [3]) was 41%; in assay [2] (setting [4]) it was 11%.
On the same counts, the results for `Cc1ccc(F)cc1-c1noc(C(=O)NCC(=O)NC2CCC(C(c3ccccc3)N(C)C)CC2)n1` (centres unmarked) [Example 767, 3-(5-fluoro-2-methyl-phenyl)-[1,2,4]oxadiazole-5-carboxylic acid {[4-(dimethylamino-phenyl-methyl)-cyclohexylcarbamoyl]-methyl}-amide] are 17% and 43%.
Regarding `COc1ccc(-c2noc(C(=O)NCC(=O)NC3CCC(C(c4ccccc4)N(C)C)CC3)n2)cc1OC` (centres unmarked) [Example 775, 3-(3,4-dimethoxy-phenyl)-[1,2,4]oxadiazole-5-carboxylic acid {[4-(dimethylamino-phenyl-methyl)-cyclohexylcarbamoyl]-methyl}-amide], the results for the inhibition at 10 µM in assay [1] (setting [3]) and in assay [2] (setting [4]) were 20% and -7%, respectively.
In the case of `CN(C)C(c1cccc(F)c1)C1CCC(CNC(=O)CNC(=O)c2nc(CS(=O)(=O)c3ccccc3)no2)CC1` (centres unmarked) [Example 781, 3-benzenesulfonylmethyl-[1,2,4]oxadiazole-5-carboxylic acid [({4-[dimethylamino-(3-fluoro-phenyl)-methyl]-cyclohexylmethyl}-carbamoyl)-methyl]-amide], the inhibition at 10 µM was -35% in assay [1] (setting [3]) and -4% in assay [2] (setting [4]).
In the same order, the values of `COc1ccc(-c2noc(C(=O)NCCC(=O)NC3CCC(C(CCc4ccccc4)N(C)C)CC3)n2)cc1OC` (centres unmarked) [Example 789, 3-(3,4-dimethoxy-phenyl)-[1,2,4]oxadiazole-5-carboxylic acid {2-[4-(1-dimethylamino-3-phenyl-propyl)-cyclohexylcarbamoyl]-ethyl}-amide] are -6% and -11%.
With `O=C(COC1CCN(S(=O)(=O)c2c(Cl)cc(Cl)cc2Cl)C1)NC1CCC(C(c2ccccc2)N2CCOCC2)CC1` (centres unmarked) [Example 610, N-[4-(morpholin-4-ylphenylmethyl)-cyclohexyl]-2-[1-(2,4,6-trichlorobenzenesulfonyl)-pyrrolidin-3-yloxy]-acetamide], the inhibition at 10 µM is 5% in assay [1] (setting [3]) and 12% in assay [2] (setting [4]).
For `Cc1cc(Cl)cc(Cl)c1-c1noc(C(=O)NCC(=O)NC2CCC(C(c3ccccc3)N(C)C)CC2)n1` (centres unmarked) [Example 762, 3-(2,4-dichloro-6-methyl-phenyl)-[1,2,4]oxadiazole-5-carboxylic acid {[4-(dimethylamino-phenyl-methyl)-cyclohexylcarbamoyl]-methyl}-amide], the inhibition at 10 µM was found to be 25% in assay [1] (setting [3]) and 73% in assay [2] (setting [4]).
In the same order, the values of `COc1ccccc1-c1noc(C(=O)NCC(=O)NC2CCC(C(CCc3ccccc3)N(C)C)CC2)n1` (centres unmarked) [Example 782, 3-(2-methoxy-phenyl)-[1,2,4]oxadiazole-5-carboxylic acid {[4-(1-dimethylamino-3-phenyl-propyl)-cyclohexylcarbamoyl]-methyl}-amide] are -11% and -6%.
On the same counts, the results for `COc1ccccc1-c1noc(C(=O)NCC(=O)NC2CCC(C(c3ccccc3)N(C)C)CC2)n1` (centres unmarked) [Example 763, 3-(2-methoxy-phenyl)-[1,2,4]oxadiazole-5-carboxylic acid {[4-(dimethylamino-phenyl-methyl)-cyclohexylcarbamoyl]-methyl}-amide] are 22% and -10%.
Take `CN(C)C(CCc1ccccc1)C1CCC(NC(=O)CNC(=O)c2nc(-c3cccs3)no2)CC1` (centres unmarked) [Example 784, 3-thiophen-2-yl-[1,2,4]oxadiazole-5-carboxylic acid {[4-(1-dimethylamino-3-phenyl-propyl)-cyclohexylcarbamoyl]-methyl}-amide]: the values for the inhibition at 10 µM in assay [1] (setting [3]) and in assay [2] (setting [4]) were -1% and 76%, respectively.
For `CN(C)C(c1ccccc1)C1CCC(NC(=O)CCNC(=O)c2nc(-c3cc(Cl)cc(Cl)c3)no2)CC1` (centres unmarked) [Example 761, 3-(3,5-dichloro-phenyl)-[1,2,4]oxadiazole-5-carboxylic acid {2-[4-(dimethylamino-phenyl-methyl)-cyclohexylcarbamoyl]-ethyl}-amide], the inhibition at 10 µM in assay [1] (CHO-K1, read-out: B1R Ant. r [10 μM] % Inhibition) worked out at 15%; in assay [2] (CHO-K1, read-out: B1R Ant. h [10 μM] % Inhibition), 34%.
Regarding `CN(C)C(CCc1ccccc1)C1CCC(NC(=O)CNC(=O)c2nc(-c3ccc4c(c3)OCO4)no2)CC1` (centres unmarked) [Example 783, 3-benzo[1,3]dioxol-5-yl-[1,2,4]oxadiazole-5-carboxylic acid {[4-(1-dimethylamino-3-phenyl-propyl)-cyclohexylcarbamoyl]-methyl}-amide], the inhibition at 10 µM is -28% in assay [1] (setting [3]) and 45% in assay [2] (setting [4]).
On the same counts, the results for `CN(C)C(c1ccccc1)C1CCC(NC(=O)CNC(=O)c2nc(-c3ccc(C(F)(F)F)cc3)no2)CC1` (centres unmarked) [Example 765, 3-(4-trifluoromethyl-phenyl)-[1,2,4]oxadiazole-5-carboxylic acid {[4-(dimethylamino-phenyl-methyl)-cyclohexylcarbamoyl]-methyl}-amide] are 29% and 15%.

(Values after patent US8106055B2, “Substituted amide compounds” (Gruenenthal GmbH, priority 2007, dated 2012).)
